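Where inhibition never reached the appropriate level, the endpoint shown equals the highest concentration tested. Otherwise, values were interpolated linearly from a five-concentration, 48-hour dose response in 96-well plates. Abbreviation: GI50, concentration required for 50% inhibition of growth.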 Calls of active or inactive are those of the source. Rule as the data show it: active = GI50 up to about 1.1 µM and inactive = higher.
How the values were obtained:
Assay in all cases: NCI anticancer screen, dose series, 48 h
A498 = tested on: A498
ACHN = tested on: ACHN
HCT-116 = tested on: HCT-116
HT-29 = tested on: HT-29
IGROV-1 = tested on: IGROV-1
LOX IMVI = tested on: LOX IMVI
Malme-3M = tested on: Malme-3M
NCI-H460 = tested on: NCI-H460
OVCAR-8 = tested on: OVCAR-8
RPMI-8226 = tested on: RPMI-8226
SF-295 = tested on: SF-295
SK-MEL-5 = tested on: SK-MEL-5
SN12C = tested on: SN12C
SNB-75 = tested on: SNB-75
UACC-257 = tested on: UACC-257
DU-145 = tested on: DU-145
MDA-MB-435 = tested on: MDA-MB-435
NCI/ADR-RES = tested on: NCI/ADR-RES
T47D = tested on: T47D

Compound | GI50 (A498) | GI50 (ACHN) | GI50 (HCT-116) | GI50 (HT-29) | GI50 (IGROV-1) | GI50 (LOX IMVI) | GI50 (Malme-3M) | GI50 (NCI-H460) | GI50 (OVCAR-8) | GI50 (RPMI-8226) | GI50 (SF-295) | GI50 (SK-MEL-5) | GI50 (SN12C) | GI50 (SNB-75) | GI50 (UACC-257) | GI50 (DU-145) | GI50 (MDA-MB-435) | GI50 (NCI/ADR-RES) | GI50 (T47D)
Cc1nn(-c2ccccc2)c2nc(N3CCOCC3)nnc12 | 66.1 µM (inactive) | 71.9 µM (inactive) | > 100 µM (inactive) | > 100 µM (inactive) | > 100 µM (inactive) | > 100 µM (inactive) | 64 µM (inactive) | > 100 µM (inactive) | 92.5 µM (inactive) | 46.6 µM (inactive) | > 100 µM (inactive) | 49.2 µM (inactive) | > 100 µM (inactive) | 40.3 µM (inactive) | > 100 µM (inactive) | – | – | – | –
COc1cc(OC)c(/C=C\c2ccnc3ccccc23)c(OC)c1 | 2.88 µM (inactive) | 4.41 µM (inactive) | 2.5 µM (inactive) | 2.67 µM (inactive) | 1.45 µM (inactive) | 2.73 µM (inactive) | 1.34 µM (inactive) | 3.2 µM (inactive) | – | 3.06 µM (inactive) | 2.53 µM (inactive) | 1.7 µM (inactive) | 4.71 µM (inactive) | – | 3.75 µM (inactive) | 5.37 µM (inactive) | 0.404 µM (active) | 2.07 µM (inactive) | 3.12 µM (inactive)
Nc1nc(=O)c(/N=N/c2ccccc2)c(N)[nH]1 | 45.2 µM (inactive) | 27.4 µM (inactive) | 16.1 µM (inactive) | 28.4 µM (inactive) | 29.6 µM (inactive) | 47.5 µM (inactive) | 15.3 µM (inactive) | 24.6 µM (inactive) | 43.5 µM (inactive) | > 100 µM (inactive) | 32.7 µM (inactive) | 51.8 µM (inactive) | 52.7 µM (inactive) | 3.78 µM (inactive) | 56.9 µM (inactive) | – | – | – | –
N#Cc1ccccc1NC(=O)c1ccccc1 | > 100 µM (inactive) | > 100 µM (inactive) | > 100 µM (inactive) | > 100 µM (inactive) | > 100 µM (inactive) | > 100 µM (inactive) | > 100 µM (inactive) | > 100 µM (inactive) | > 100 µM (inactive) | > 100 µM (inactive) | > 100 µM (inactive) | > 100 µM (inactive) | > 100 µM (inactive) | 68.5 µM (inactive) | > 100 µM (inactive) | – | – | – | –
Cc1c2ccnc(C(N)=O)c2c(C)c2c1[nH]c1ccccc12 | 8.18 µM (inactive) | 2.51 µM (inactive) | 2.4 µM (inactive) | 6.35 µM (inactive) | 9.2 µM (inactive) | 4.65 µM (inactive) | 6.15 µM (inactive) | 3.81 µM (inactive) | 4.13 µM (inactive) | 5.82 µM (inactive) | 1.53 µM (inactive) | 6.18 µM (inactive) | 4.13 µM (inactive) | 10.6 µM (inactive) | 10.5 µM (inactive) | – | – | 5.65 µM (inactive) | –
COc1ccccc1NC(=O)C1=C(C)NC(C)=C(C(=O)Nc2ccccc2OC)C1c1ccc([N+](=O)[O-])cc1 | > 100 µM (inactive) | 52.8 µM (inactive) | 60.5 µM (inactive) | 80.5 µM (inactive) | > 100 µM (inactive) | 48.9 µM (inactive) | > 100 µM (inactive) | 28.8 µM (inactive) | > 100 µM (inactive) | 18.5 µM (inactive) | 13.4 µM (inactive) | 30.7 µM (inactive) | > 100 µM (inactive) | > 100 µM (inactive) | > 100 µM (inactive) | – | – | – | –
N#Cc1nc(Nc2ccc(Cl)cc2)sc1N | 10.9 µM (inactive) | 3.86 µM (inactive) | 6.44 µM (inactive) | 19.7 µM (inactive) | 19.5 µM (inactive) | 3.47 µM (inactive) | 11.6 µM (inactive) | 16.4 µM (inactive) | 16.7 µM (inactive) | 2.34 µM (inactive) | 16.9 µM (inactive) | 2.61 µM (inactive) | 4.54 µM (inactive) | 28.8 µM (inactive) | 10.2 µM (inactive) | – | – | – | –
O=C1CS(=O)(=O)C(c2cccc(Oc3ccccc3)c2)N1c1cccc(Cl)c1Cl (stereo not drawn) | – | 20.3 µM (inactive) | 22.4 µM (inactive) | 25.2 µM (inactive) | – | 17.7 µM (inactive) | 24.3 µM (inactive) | 36.2 µM (inactive) | 19.1 µM (inactive) | – | 33.8 µM (inactive) | 18.2 µM (inactive) | 19.8 µM (inactive) | 29.3 µM (inactive) | 21 µM (inactive) | 42.6 µM (inactive) | 19.7 µM (inactive) | – | 26.2 µM (inactive)
C[N+](C)(C)CC1CCC/C1=N/O (stereo not drawn) | > 100 µM (inactive) | > 100 µM (inactive) | 21.5 µM (inactive) | 39.3 µM (inactive) | > 100 µM (inactive) | 20.6 µM (inactive) | > 100 µM (inactive) | 50.4 µM (inactive) | 1.86 µM (inactive) | 25.7 µM (inactive) | > 100 µM (inactive) | > 100 µM (inactive) | > 100 µM (inactive) | > 100 µM (inactive) | 43 µM (inactive) | – | – | – | –
CC(=O)OCC(OC(C)=O)C(OC(C)=O)C(OC(C)=O)C(=O)CNn1c(-c2ccc(C)cc2)nc2ccccc2c1=O (stereo not drawn) | > 100 µM (inactive) | > 100 µM (inactive) | > 100 µM (inactive) | > 100 µM (inactive) | – | > 100 µM (inactive) | > 100 µM (inactive) | > 100 µM (inactive) | > 100 µM (inactive) | 39.4 µM (inactive) | > 100 µM (inactive) | > 100 µM (inactive) | 76 µM (inactive) | 53.1 µM (inactive) | > 100 µM (inactive) | – | – | – | –
C=CCc1cc(OC)c(O)c(C(=O)/C=C/c2ccc(OC)c(OC)c2)c1 | 17.9 µM (inactive) | 19.9 µM (inactive) | 14.5 µM (inactive) | 16.4 µM (inactive) | 44.6 µM (inactive) | 16.3 µM (inactive) | 18.6 µM (inactive) | 30.1 µM (inactive) | > 10 µM (inactive) | 0.67 µM (active) | 16.1 µM (inactive) | 15.3 µM (inactive) | – | 22.5 µM (inactive) | 19.3 µM (inactive) | – | – | – | –
CCCCCCCCCCCCCCCC(=O)NC1CCc2cc(O)c(O)c(O)c2-c2ccc(SC)c(=O)cc21 (stereo not drawn) | 19.3 µM (inactive) | 8.04 µM (inactive) | 3.86 µM (inactive) | 13.1 µM (inactive) | 8.39 µM (inactive) | 12 µM (inactive) | 10.4 µM (inactive) | 5.77 µM (inactive) | 7.67 µM (inactive) | 1.61 µM (inactive) | 3.7 µM (inactive) | 4.42 µM (inactive) | 12.9 µM (inactive) | 2.62 µM (inactive) | 11.1 µM (inactive) | – | – | – | –
O=C(O/N=C1/CCCC/C1=C\c1ccccc1)c1ccccc1 | 0.178 µM (active) | > 100 µM (inactive) | 34 µM (inactive) | 40 µM (inactive) | 0.108 µM (active) | 33 µM (inactive) | > 100 µM (inactive) | > 10 µM (inactive) | 42.5 µM (inactive) | > 100 µM (inactive) | 70.3 µM (inactive) | 0.146 µM (active) | > 100 µM (inactive) | > 100 µM (inactive) | > 100 µM (inactive) | – | – | – | –
CCOC(=O)c1s/c(=N\Nc2nc3ccccc3cc2C2OCCO2)n(Cc2ccccc2)c1C | > 100 µM (inactive) | > 100 µM (inactive) | > 100 µM (inactive) | > 100 µM (inactive) | > 100 µM (inactive) | > 100 µM (inactive) | > 100 µM (inactive) | > 100 µM (inactive) | > 100 µM (inactive) | > 100 µM (inactive) | > 100 µM (inactive) | > 100 µM (inactive) | > 100 µM (inactive) | > 100 µM (inactive) | > 100 µM (inactive) | – | – | – | –
CC(C)(C)C1=C(Br)C(O)(C(C)(C)C)OP1(=O)c1ccccc1 (stereo not drawn) | > 100 µM (inactive) | > 100 µM (inactive) | – | > 100 µM (inactive) | > 100 µM (inactive) | > 100 µM (inactive) | > 100 µM (inactive) | > 100 µM (inactive) | > 100 µM (inactive) | – | > 100 µM (inactive) | > 100 µM (inactive) | > 100 µM (inactive) | > 100 µM (inactive) | > 100 µM (inactive) | > 100 µM (inactive) | > 100 µM (inactive) | > 100 µM (inactive) | > 100 µM (inactive)
Nc1nc(SCCC/C=C/B(O)O)nc2c1ncn2C1OC(COP(=O)(O)O)C(O)C1O (stereo not drawn) | > 203 µM (inactive) | > 203 µM (inactive) | > 203 µM (inactive) | > 203 µM (inactive) | > 203 µM (inactive) | > 203 µM (inactive) | > 203 µM (inactive) | > 203 µM (inactive) | > 203 µM (inactive) | > 203 µM (inactive) | > 203 µM (inactive) | > 203 µM (inactive) | > 203 µM (inactive) | > 203 µM (inactive) | > 203 µM (inactive) | – | – | – | –
Cc1cc(N(CCCCl)CCCCl)ccc1/C=N/c1cccc(Cl)c1 | – | 13.1 µM (inactive) | 25 µM (inactive) | 14.6 µM (inactive) | 13.2 µM (inactive) | 13.8 µM (inactive) | 8.79 µM (inactive) | 0.977 µM (active) | 11.9 µM (inactive) | < 0.01 µM (active) | 17.6 µM (inactive) | 14.4 µM (inactive) | 16.7 µM (inactive) | 12.1 µM (inactive) | 0.428 µM (active) | 14.7 µM (inactive) | 17.7 µM (inactive) | 14.2 µM (inactive) | 0.45 µM (active)
CCCCOC(=O)NC(Nc1ccc(S(=O)(=O)Nc2ncccn2)cc1)(C(F)(F)F)C(F)(F)F | > 100 µM (inactive) | > 100 µM (inactive) | > 100 µM (inactive) | > 100 µM (inactive) | > 100 µM (inactive) | > 100 µM (inactive) | > 100 µM (inactive) | > 100 µM (inactive) | > 100 µM (inactive) | 86.9 µM (inactive) | > 100 µM (inactive) | > 100 µM (inactive) | > 100 µM (inactive) | – | – | > 100 µM (inactive) | > 100 µM (inactive) | > 100 µM (inactive) | 37 µM (inactive)

— ChEMBL document CHEMBL1201862, “PubChem BioAssay data set” (2004)
